Experimental findings from PubChem BioAssay AID1845198 (Molecular Pharmacology Branch, DTP, NCI, 2023) are described below.

This assay concerns 425362-245-T-J1 tumor spheroids, viability % test/control. Description: Anticancer human tumor 425362-245-T-J1 patient-derived melanoma cell line growth inhibition. To be noted: spheroids with HUVEC and MSC; for viability, T/C: stronger effect = lower value. A digest of the protocol: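 Complex tumor spheroids combined malignant cells with endothelial cells and mesenchymal stem cells. DNA-damaging drugs and DNA repair inhibitors were tested alone and in combination, at half-log dilutions down from clinical Cmax (top 10 microM if Cmax unknown), 0.25% DMSO final.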

The mark [1] stands for this setting: curve of first compound, second compound 30 pM.
The mark [2] stands for this setting: curve of first compound, second compound 94.9 pM.
Where [3] appears, read: curve of first compound, second compound 0.0003 µM.
The mark [4] stands for this setting: curve of first compound, second compound 0.000949 µM.
The mark [5] stands for this setting: curve of first compound, second compound 0.003 µM.
[6] abbreviates: second compound 30 pM, first compound 0.00949 µM.
Where [7] appears, read: second compound 30 pM, first compound 0.03 µM.
The mark [8] stands for this setting: second compound 30 pM, first compound 0.0949 µM.
[9] abbreviates: second compound 30 pM, first compound 0.3 µM.
The mark [10] stands for this setting: second compound 30 pM, first compound 0.949 µM.
The mark [11] stands for this setting: second compound 30 pM, first compound 3 µM.
Where [12] appears, read: second compound 94.9 pM, first compound 0.00949 µM.
[13] abbreviates: second compound 94.9 pM, first compound 0.03 µM.
Where [14] appears, read: second compound 94.9 pM, first compound 0.0949 µM.
[15] abbreviates: second compound 94.9 pM, first compound 0.3 µM.
The mark [16] stands for this setting: second compound 94.9 pM, first compound 0.949 µM.
The mark [17] stands for this setting: second compound 94.9 pM, first compound 3 µM.
Where [18] appears, read: second compound 0.0003 µM, first compound 0.00949 µM.
The mark [19] stands for this setting: second compound 0.0003 µM, first compound 0.03 µM.
Where [20] appears, read: second compound 0.0003 µM, first compound 0.0949 µM.
Where [21] appears, read: second compound 0.0003 µM, first compound 0.3 µM.
[22] abbreviates: second compound 0.0003 µM, first compound 0.949 µM.
Setting [23] is: second compound 0.0003 µM, first compound 3 µM.
Where [24] appears, read: second compound 0.000949 µM, first compound 0.00949 µM.
[25] abbreviates: second compound 0.000949 µM, first compound 0.03 µM.
Where [26] appears, read: second compound 0.000949 µM, first compound 0.0949 µM.
Setting [27] is: second compound 0.000949 µM, first compound 0.3 µM.
[28] abbreviates: second compound 0.000949 µM, first compound 0.949 µM.
Setting [29] is: second compound 0.000949 µM, first compound 3 µM.
[30] abbreviates: second compound 0.003 µM, first compound 0.00949 µM.
The mark [31] stands for this setting: second compound 0.003 µM, first compound 0.03 µM.
Where [32] appears, read: second compound 0.003 µM, first compound 0.0949 µM.
Setting [33] is: second compound 0.003 µM, first compound 0.3 µM.
Setting [34] is: second compound 0.003 µM, first compound 0.949 µM.
The mark [35] stands for this setting: second compound 0.003 µM, first compound 3 µM.

Values joined by “and” are separate entries in the source; they are usually repeats but may differ in a detail not shown here. Equal entries are not always repeated. Where only a bound is given, the exact number is not on record here.
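Further: spheroids exposed to agents for 7 days.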
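Wherever viability, T/C is given: 100% = DMSO vehicle control viability.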

Take `COc1cc2c(cc1O)CCNC21CSC2c3c(OC(C)=O)c(C)c4c(c3C(COC1=O)N1C(O)C3Cc5cc(C)c(OC)c(O)c5C(C21)N3C)OCO4` (stereo not given): the viability, T/C (in general, the ratio of treated to control) by setting is: (compound 30 pM) 98% [middle of 10 runs]; (compound 94.9 pM) 95.6% [middle of 10 runs]; (compound 0.0003 µM) 40.8% [middle of 10 runs]; (compound 0.000949 µM) 0.32% [middle of 9 runs]; (compound 0.003 µM) 0.21% [middle of 9 runs]. The IC50 (as a rule, the concentration needed to halve the response being measured) (compound alone, run of 10/25/2019) is 0.243 nM [middle of 9 runs].

For the compound `CC1COCCN1c1cc(-c2ccnn2C)c2ccnc(-c3ccn[nH]3)c2n1` (stereo not given), the viability, T/C (compound 0.0316 µM) was 34.4% and 43.6% and 45.5%; the viability, T/C (compound 0.1 µM) is 13.7% and 12.7% and 17.3%; the viability, T/C (compound 0.316 µM) is 7.51% and 9.92% and 13.6%; the viability, T/C (compound 1 µM) was 6.44% and 8.46% and 7.34%; the viability, T/C (compound 3.16 µM) was 6.81% and 10.8% and 7.05%; the viability, T/C (compound 10 µM) was 8.79% and 9.71% and 7.27%. In addition, where the note is “curve of compound”, the half-maximal inhibitory concentration (IC50) was below 0.0316 µM.

As for `Cn1nnc2c(C(N)=O)ncn2c1=O`, the viability, T/C reads like this: (compound 3.16 µM) 106% [middle of 10 runs]; (compound 31.6 µM) 108% [middle of 10 runs]; (compound 100 µM) 92.1% [middle of 10 runs]. For the same compound, the IC50 (compound alone, run of 10/17/2019) was above 100 µM.

Take `COc1cc(C)[nH]c(=O)c1CN1CCc2c(Cl)cc(C(OC)C3COC3)c(Cl)c2C1=O` (stereo not given): the viability, T/C was 107% and 103% and 97% (compound 0.0316 µM); 103% (2×) and 108% (compound 0.1 µM); 106% and 97.8% and 99.9% (compound 0.316 µM); 95.9% and 103% and 98.4% (compound 1 µM); 97.4% and 104% and 96.1% (compound 3.16 µM); 89.9% and 92.6% and 88.8% (compound 10 µM). For the same compound, the half-inhibitory concentration (IC50) (curve of compound) was above 10 µM.

On to `Cn1ncnc1[C@H]1c2n[nH]c(=O)c3cc(F)cc(c23)N[C@@H]1c1ccc(F)cc1` + COc1cc2c(cc1O)CCNC21CSC2c3c(OC(C)=O)c(C)c4c(c3C(COC1=O)N1C(O)C3Cc5cc(C)c(OC)c(O)c5C(C21)N3C)OCO4, for which the concentration for half-maximal inhibition (IC50) is 0.0125 µM under setting [1]; below 0.00949 µM under setting [2]; below 0.00949 µM under setting [3]; below 0.00949 µM under setting [4]; below 0.00949 µM under setting [5]. The viability, T/C is, setting by setting: under setting [6], 56.7%; under setting [7], 30.3%; under setting [8], 19.6%; under setting [9], 13.2%; under setting [10], 6.87%; under setting [11], 1.96%. The viability, T/C is 42.5% under setting [12]; 20% under setting [13]; 14.8% under setting [14]; 9.34% under setting [15]; 4.06% under setting [16]; 1.23% under setting [17]. Moreover, the viability, T/C runs as follows: under setting [18], 25.2%; under setting [19], 6.95%; under setting [20], 3.81%; under setting [21], 4.9%; under setting [22], 1.34%; under setting [23], 0.77%. Besides, the viability, T/C was 0.45% under setting [24]; 0.42% under setting [25]; 0.27% under setting [26]; 0.14% under setting [27]; 0.13% under setting [28]; 0.22% under setting [29]. Also, the viability, T/C under setting [30] was 0.34%; the viability, T/C under setting [31] is 0.37%; the viability, T/C under setting [32] is 0.33%; the viability, T/C under setting [33] was 0.35%; the viability, T/C under setting [34] was 0.3%; the viability, T/C under setting [35] was 0.36%.

Take `Cn1ncnc1[C@H]1c2n[nH]c(=O)c3cc(F)cc(c23)N[C@@H]1c1ccc(F)cc1`: the viability, T/C by setting is: (compound 0.00949 µM) 74.9% and 69% and 59.1%; (compound 0.03 µM) 46.1% and 42.9% and 33.5%; (compound 0.0949 µM) 35.3% and 25.2% and 18.1%; (compound 0.3 µM) 16.1% and 14.1% and 15.6%; (compound 0.949 µM) 10.1% and 9.44% and 9.39%; (compound 3 µM) 3.22% and 2.7% and 1.7%. The IC50 (curve of compound) was 0.029 µM and 0.022 µM and 0.0141 µM.

In the case of `Cc1cc(C)c(CNC(=O)c2cc(-c3ccc(CN4CCOCC4)cc3)cc3c2cnn3C2CCCC2)c(=O)[nH]1`, the viability, T/C (compound 0.0316 µM) was 101% and 97.2% and 92.7%; the viability, T/C (compound 0.1 µM) is 93% and 116% and 102%; the viability, T/C (compound 0.316 µM) is 103% and 97.9% and 84.5%; the viability, T/C (compound 1 µM) is 100% and 80.2% and 86.5%; the viability, T/C (compound 3.16 µM) was 81.8% and 49.8% and 46.3%; the viability, T/C (compound 10 µM) is 42.6% and 15.2% and 14.8%. Where the note is “curve of compound”, the half-inhibitory concentration (IC50) is 8.06 µM and 3.01 µM and 2.86 µM.

As for `O=C(c1cc(Cc2n[nH]c(=O)c3ccccc23)ccc1F)N1CCN(C(=O)C2CC2)CC1`, the viability, T/C runs as follows: (compound 0.0949 µM) 92.6% and 110% and 97.2%; (compound 0.3 µM) 82.7% and 97.3% and 92.5%; (compound 0.949 µM) 73.7% and 88.9% and 75.7%; (compound 3 µM) 41.4% and 60.6% and 45.6%; (compound 9.49 µM) 12% and 18.8% and 18.9%; (compound 30 µM) 7.13% and 11.4% and 9.39%. Also, the half-maximal inhibitory concentration (IC50) (curve of compound) is 2.14 µM and 3.84 µM and 2.5 µM.

As to `Cc1sc2c(c1C)C(c1ccc(Cl)cc1)=NC(CC(=O)Nc1ccc(O)cc1)c1nnc(C)n1-2` (stereo not given) + COc1cc2c(cc1O)CCNC21CSC2c3c(OC(C)=O)c(C)c4c(c3C(COC1=O)N1C(O)C3Cc5cc(C)c(OC)c(O)c5C(C21)N3C)OCO4, the IC50 was 0.0694 µM under setting [1]; 0.0677 µM under setting [2]; 0.0112 µM under setting [3]; below 0.00949 µM under setting [4]; below 0.00949 µM under setting [5]. The viability, T/C runs as follows: under setting [6], 98.3%; under setting [7], 69.6%; under setting [8], 46%; under setting [9], 14.2%; under setting [10], 1.75%; under setting [11], 1.2%. For the same compound, the viability, T/C under setting [12] is 94.7%; the viability, T/C under setting [13] was 76.6%; the viability, T/C under setting [14] is 40.3%; the viability, T/C under setting [15] was 5.16%; the viability, T/C under setting [16] is 2.11%; the viability, T/C under setting [17] is 0.76%. For the same compound, the viability, T/C under setting [18] was 52.1%; the viability, T/C under setting [19] is 37.9%; the viability, T/C under setting [20] is 17.1%; the viability, T/C under setting [21] was 3.14%; the viability, T/C under setting [22] was 0.36%; the viability, T/C under setting [23] was 0.19%. For the same compound, the viability, T/C by setting is: under setting [24], 0.26%; under setting [25], 0.2%; under setting [26], 0.1%; under setting [27], 0.04%; under setting [28], 0.04%; under setting [29], 0.14%. In addition, the viability, T/C runs as follows: under setting [30], 0.25%; under setting [31], 0.27%; under setting [32], 0.18%; under setting [33], 0.17%; under setting [34], 0.18%; under setting [35], 0.29%.
